From patent US20180289655A1, “Methods and Compositions for the Intravenous Administration of Fumarates for the Treatment of Neurological Diseases” (Biogen MA Inc., priority 2015, published 2018)
Entries after “also recorded” stand apart in the source; their conditions may differ. Counter-ions that a name gives are not always drawn.

Assays:
[1] = test system: malonate-induced striatal lesion in rats; experiment: Malonate-induced striatal lesion volume (cytochrome oxidase histochemistry), oral DMF; format: in vivo, Sprague-Dawley rats
Method: Two separate experiments were conducted and are reported here.
Rats were anesthetized under Bupivacaine (2 mg/kg), Brevital (50 mg/kg, i.p.) and isoflurane anesthesia, placed in a stereotaxic frame and prepared for intrastriatal injection. A single injection of malonate was injected at a single site in the left striatum corresponding to stereotaxic coordinates at AP: […] from bregma; Lateral: 2.8 mm from midline; DV: −5.5 mm from surface of the skull at bregma. Malonate (in saline) was injected at a dose of 2.0 μmols in 2.0 μl over 4 minutes using a syringe pump. The injection needle was left in place for an additional 1.0 min following the infusion and was withdrawn slowly to minimize reflux of the infusate up the needle tract. Rats were kept warm on a heating pad until waking from anesthesia (Green and Greenamyre, 1995).
Three (Experiment 1) or four (Experiment 2) days after the malonate injection and 30 min after the last dose, all animals were sacrificed by CO2, and their brains were quickly removed and stored in 20% sucrose in PBS for at least 1 hour, then transfer them to 30% sucrose in PBS overnight. On next day, all brains were embedded in OCT and stored in −80° C. The first experiment included three treatment groups: vehicle, 30 mg/kg and 100 mg/kg, and the second experiment included four treatment groups: vehicle, 50 mg/kg, 75 mg/kg and 100 mg/kg.
Incubation medium consisted of 200 mg cytochrome C and 200 mg of 3, 3′-Diaminobenzidine tetrahydrochloride (DAB) in 500 ml of 0.1 M phosphate buffer, pH 7.4. Slides were incubated for 90 minutes at 37° C. and wash twice with PBS (2-5 min.), then removed to 4% neutral, buffered, paraformaldehyde for 20 minutes. Sections were rinsed twice with PBS (2-5 min.), then twice with distilled water (2-5 min.), dehydrated, cleared in xylene, and coverslipped.
The lesion area on each section was quantified using Open-Lab Image Analysis System. Sections were taken throughout the entire striatum and a total of twenty 25 μm sections were analyzed for each rat. Area measurements were summed and multiplied by intersectional distance (200 μm) to determine the lesion volume for each subject.
Data for lesion volume was analyzed by one way analysis of variance (ANOVA) followed by a Tukey's test to assess differences between the treatment and vehicle groups.

[2] = Chemical stability of DMF nano suspension (HPLC); format: physicochemical; conditions: Day 1, room temperature
Method: 5.0 ml of pH5.0 phosphate buffer (Fisher Scientific, Lot No. 100498) were added to the tube. Further, ZrO2 beads (˜10 ml) were also added to the tube. The sample was vortexed in a Fisher Scientific multi-tube vortexer at 2500 rpm for 60 min and the particle size was checked via optical microscopic image. An additional 5.0 ml of pH5 phosphate buffer was added and the sample was further milled overnight. The temperature of the sample was ˜60° C. due to the overnight milling. The particle size was determined via microscopic image and Mastersizer 2000.
The suspension was stored at room temperature and samples were taken at day 1 and day 7. The stability of the samples was examined using HPLC method for chemical stability, PSD and microscopic image (data not provided) for physical stability.

[3] = Stability of DMF 20% Captisol solutions at ambient temperature (HPLC); format: physicochemical; conditions: for DMF area %: 20% Captisol
From the text: Samples stored at ambient temperature were pulled at predetermined time points (0, 2 and 7 days), and analyzed by HPLC. [table]

With `COC(=O)/C=C/C(=O)OC` [DMF, dimethyl fumarate] the “Reduction of malonate induced lesion volume” value ([1]; Experiment 1, DMF 100 mg/kg oral daily, n=7 per group) was 55%, the “Reduction of malonate-induced lesion volume” value ([1]; Experiment 2, DMF 75 mg/kg oral daily) was 44% and the “Reduction of malonate-induced lesion volume” value ([1]; Experiment 2, DMF 100 mg/kg oral daily) was 61%. The “Reduction of malonate-induced lesion volume” value ([1]; both experiments, DMF 100 mg/kg oral daily) was “at least 55%”, the “Area % of DMF remaining” value [2] was 99.9 area % and the “Stability of DMF in 20% Captisol solution” value ([3]; 0.2 mg/ml) was “stable up to 2 days; also recorded: stable up to 2 d; also recorded: chemically and physically stable for 2 days”. For the same molecule, the DMF area % ([3]; 0.2 mg/ml, 2 d) was 99.5 area %, the DMF area % ([3]; 0.2 mg/ml, 7 d) was 97.2 area % and the DMF area % ([3]; 0.2 mg/ml, initial) was 99.7 area %. For the same molecule, the DMF area % ([3]; 4 mg/ml, 7 d) was 99.4 area % and the DMF area % ([3]; 4 mg/ml, initial) was 99.7 area %.
